Data reported in PubChem BioAssay (NCI).
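Each compound was tested at five concentrations against cells in 96-well plates for 48 hours. GI50 marks 50% less growth. TGI: concentration producing complete growth inhibition.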

Assays:
Test in all cases: NCI-60 cell line screen, 48 h
[1] = tested on: 786-0 renal
[2] = tested on: A498 renal
[3] = tested on: A549 NSCLC
[4] = tested on: ACHN renal
[5] = tested on: BT-549 breast
[6] = tested on: CAKI-1 renal
[7] = tested on: CCRF-CEM leukemia
[8] = tested on: COLO 205 colon
[9] = tested on: DU-145 prostate
[10] = tested on: EKVX NSCLC
[11] = tested on: HCC-2998 colon
[12] = tested on: HCT-116 colon
[13] = tested on: HCT-15 colon
[14] = tested on: HL-60(TB) leukemia
[15] = tested on: HOP-62 NSCLC
[16] = tested on: HOP-92 NSCLC
[17] = tested on: HS 578T breast
[18] = tested on: HT29 colon
[19] = tested on: IGROV1 ovarian
[20] = tested on: K-562 leukemia
[21] = tested on: KM12 colon
[22] = tested on: LOX IMVI melanoma
[23] = tested on: M14 melanoma
[24] = tested on: MALME-3M melanoma
[25] = tested on: MCF7 breast
[26] = tested on: MDA-MB-231 breast
[27] = tested on: MDA-MB-435
[28] = tested on: NCI-H226 lung
[29] = tested on: NCI-H23 lung
[30] = tested on: NCI-H460 lung
[31] = tested on: NCI-H522 lung
[32] = tested on: NCI/ADR-RES ovarian
[33] = tested on: OVCAR-4 ovarian
[34] = tested on: OVCAR-5 ovarian
[35] = tested on: PC-3 prostate
[36] = tested on: RPMI-8226 leukemia
[37] = tested on: RXF 393 renal
[38] = tested on: SF-268 CNS
[39] = tested on: SF-295 CNS
[40] = tested on: SF-539 CNS
[41] = tested on: SK-MEL-2 melanoma
[42] = tested on: SK-MEL-28 melanoma
[43] = tested on: SK-MEL-5 melanoma
[44] = tested on: SK-OV-3 ovarian
[45] = tested on: SN12C renal
[46] = tested on: SNB-19 CNS
[47] = tested on: SNB-75 CNS
[48] = tested on: SR leukemia
[49] = tested on: SW-620 colon
[50] = tested on: T-47D breast
[51] = tested on: TK-10 renal
[52] = tested on: U251 CNS
[53] = tested on: UACC-257 melanoma
[54] = tested on: UACC-62 melanoma
[55] = tested on: UO-31 renal
[56] = tested on: MOLT-4 leukemia
[57] = tested on: OVCAR-8 ovarian

O=C(CNc1nc(-c2cccc([N+](=O)[O-])c2)cs1)Nc1cccc([N+](=O)[O-])c1
GI50 [1]: 1940 nM | TGI [1]: 4880 nM | GI50 [2]: 1300 nM | TGI [2]: 2580 nM | GI50 [3]: 2630 nM | TGI [3]: 9090 nM | GI50 [4]: 1300 nM | TGI [4]: 2630 nM | GI50 [5]: 627 nM | TGI [5]: 2210 nM | GI50 [6]: 715 nM | TGI [6]: 2600 nM | GI50 [7]: 446 nM | TGI [7]: > 100000 nM | GI50 [8]: 1280 nM | TGI [8]: 2850 nM | GI50 [9]: 2020 nM | TGI [9]: 4790 nM | GI50 [10]: 2060 nM | TGI [10]: 4740 nM | GI50 [11]: 1780 nM | TGI [11]: 3480 nM | GI50 [12]: 1240 nM | TGI [12]: 3180 nM | GI50 [13]: 582 nM | TGI [13]: 2810 nM | GI50 [14]: 2080 nM | TGI [14]: 7730 nM | GI50 [15]: 1980 nM | TGI [15]: 4130 nM | GI50 [16]: 1700 nM | TGI [16]: 4000 nM | GI50 [17]: 1600 nM | TGI [17]: 5280 nM | GI50 [18]: 744 nM | TGI [18]: 2290 nM | GI50 [19]: 333 nM | TGI [19]: 1330 nM | GI50 [20]: 1030 nM | TGI [20]: > 100000 nM | GI50 [21]: 1360 nM | TGI [21]: 3090 nM | GI50 [22]: 577 nM | TGI [22]: 2040 nM | GI50 [23]: 1480 nM | TGI [23]: 3060 nM | GI50 [24]: 1580 nM | TGI [24]: 3180 nM | GI50 [25]: 942 nM | TGI [25]: 4610 nM | GI50 [26]: 2110 nM | TGI [26]: 4560 nM | GI50 [27]: 1650 nM | TGI [27]: 3070 nM | GI50 [28]: 1040 nM | TGI [28]: 3320 nM | GI50 [29]: 404 nM | TGI [29]: 1760 nM | GI50 [30]: 1040 nM | TGI [30]: 2760 nM | GI50 [31]: 1330 nM | TGI [31]: 2900 nM | GI50 [32]: 1470 nM | TGI [32]: 4590 nM | GI50 [33]: 2090 nM | TGI [33]: 5070 nM | GI50 [34]: 542 nM | TGI [34]: 2370 nM | GI50 [35]: 593 nM | TGI [35]: 2660 nM | GI50 [36]: 1470 nM | TGI [36]: 4320 nM | GI50 [37]: 522 nM | TGI [37]: 2070 nM | GI50 [38]: 1690 nM | TGI [38]: 3350 nM | GI50 [39]: 2120 nM | TGI [39]: 5470 nM | GI50 [40]: 1530 nM | TGI [40]: 3490 nM | GI50 [41]: 1790 nM | TGI [41]: 3310 nM | GI50 [42]: 1490 nM | TGI [42]: 3080 nM | GI50 [43]: 1790 nM | TGI [43]: 3240 nM | GI50 [44]: 871 nM | TGI [44]: 2410 nM | GI50 [45]: 1740 nM | TGI [45]: 5030 nM | GI50 [46]: 2220 nM | TGI [46]: 6440 nM | GI50 [47]: 1070 nM | TGI [47]: 2350 nM | GI50 [48]: 419 nM | TGI [48]: > 100000 nM | GI50 [49]: 372 nM | TGI [49]: 2010 nM | GI50 [50]: 1910 nM | TGI [50]: 4870 nM | GI50 [51]: 1530 nM | TGI [51]: 5820 nM | GI50 [52]: 1710 nM | TGI [52]: 5000 nM | GI50 [53]: 1950 nM | TGI [53]: 5080 nM | GI50 [54]: 662 nM | TGI [54]: 2030 nM | GI50 [55]: 1290 nM | TGI [55]: 2670 nM

NC(N)=Nc1ccc(Oc2cccc(NC(N)=Nc3ccc(Cl)c(C(F)(F)F)c3)c2)cn1
GI50 [1]: 4830 nM | TGI [1]: 24800 nM | GI50 [2]: 1690 nM | TGI [2]: 6240 nM | GI50 [3]: 1910 nM | TGI [3]: 17400 nM | GI50 [4]: 13300 nM | TGI [4]: 29400 nM | GI50 [6]: 3290 nM | TGI [6]: 17400 nM | GI50 [7]: 2270 nM | TGI [7]: 10300 nM | GI50 [8]: 1430 nM | TGI [8]: 3080 nM | GI50 [9]: 2220 nM | TGI [9]: 5270 nM | GI50 [10]: 2770 nM | TGI [10]: 13500 nM | GI50 [11]: 1670 nM | TGI [11]: 3370 nM | GI50 [12]: 1730 nM | TGI [12]: 4860 nM | GI50 [13]: 19600 nM | TGI [13]: 67600 nM | GI50 [15]: 2050 nM | TGI [15]: 5760 nM | GI50 [16]: 1160 nM | TGI [16]: 3430 nM | GI50 [17]: 1780 nM | TGI [17]: 4630 nM | GI50 [18]: 1910 nM | TGI [18]: 5640 nM | GI50 [19]: 1070 nM | TGI [19]: 2510 nM | GI50 [20]: 1510 nM | TGI [20]: 10600 nM | GI50 [21]: 1470 nM | TGI [21]: 2900 nM | GI50 [22]: 1400 nM | TGI [22]: 2740 nM | GI50 [23]: 3220 nM | TGI [23]: 19300 nM | GI50 [24]: 2300 nM | TGI [24]: 7910 nM | GI50 [25]: 1240 nM | TGI [25]: 3010 nM | GI50 [26]: 1990 nM | TGI [26]: 5230 nM | GI50 [27]: 1660 nM | TGI [27]: 3660 nM | GI50 [56]: 2160 nM | TGI [56]: 8080 nM | GI50 [28]: 2180 nM | TGI [28]: 6250 nM | GI50 [29]: 1730 nM | TGI [29]: 4150 nM | GI50 [30]: 1480 nM | TGI [30]: 3600 nM | GI50 [31]: 2190 nM | TGI [31]: 5810 nM | GI50 [32]: 40500 nM | TGI [32]: > 100000 nM | GI50 [33]: 2530 nM | TGI [33]: 9360 nM | GI50 [34]: 1890 nM | TGI [34]: 5730 nM | GI50 [57]: 3300 nM | TGI [57]: 18700 nM | GI50 [35]: 1070 nM | TGI [35]: 2620 nM | GI50 [36]: 1560 nM | TGI [36]: 4000 nM | GI50 [37]: 1830 nM | TGI [37]: 4780 nM | GI50 [38]: 1090 nM | TGI [38]: 2540 nM | GI50 [39]: 2080 nM | TGI [39]: 7970 nM | GI50 [40]: 1540 nM | TGI [40]: 3010 nM | GI50 [41]: 1780 nM | TGI [41]: 3370 nM | GI50 [42]: 2040 nM | TGI [42]: 5920 nM | GI50 [43]: 2530 nM | TGI [43]: 6940 nM | GI50 [44]: 2700 nM | TGI [44]: 10400 nM | GI50 [45]: 2200 nM | TGI [45]: 8970 nM | GI50 [46]: 1280 nM | TGI [46]: 2680 nM | GI50 [47]: 515 nM | TGI [47]: 2920 nM | GI50 [48]: 1420 nM | TGI [48]: 3760 nM | GI50 [49]: 1940 nM | TGI [49]: 4830 nM | GI50 [51]: 4350 nM | TGI [51]: 21700 nM | GI50 [52]: 1260 nM | TGI [52]: 2830 nM | GI50 [53]: 2870 nM | TGI [53]: 12800 nM | GI50 [54]: 2380 nM | TGI [54]: 12700 nM | GI50 [55]: 12900 nM | TGI [55]: 29600 nM
